From the NIST ThermoML archive (doi:10.1021/acs.jced.6b00536)
Where “and” joins values, the source holds several entries; their conditions need not be identical. Equal values may be shown once. Numbers after ± are expanded uncertainties.

Conditions: Gas, Frequency=0.05 MHz, Single path-length method

FC(F)(F)C(F)(F)C(F)(F)F [octafluoropropane]
Conditions	speed of sound
251.1 K, 62.4 kPa	106.76 ± 0.1 m/s
251.1 K, 71.8 kPa	106.39 ± 0.1 m/s
251.1 K, 80.5 kPa	106.08 ± 0.1 m/s
251.1 K, 89.7 kPa	105.72 ± 0.1 m/s
251.1 K, 102 kPa	105.24 ± 0.1 m/s
251.1 K, 118.2 kPa	104.61 ± 0.1 m/s
251.1 K, 143.1 kPa	103.57 ± 0.1 m/s
251.1 K, 167.2 kPa	102.56 ± 0.1 m/s
256.3 K, 63.7 kPa	107.91 ± 0.1 m/s
256.3 K, 73.3 kPa	107.57 ± 0.1 m/s
256.3 K, 82.2 kPa	107.26 ± 0.1 m/s
256.3 K, 91.7 kPa	106.91 ± 0.1 m/s
256.3 K, 104.3 kPa	106.47 ± 0.1 m/s
256.3 K, 120.9 kPa	105.85 ± 0.1 m/s
256.3 K, 146.4 kPa	104.86 ± 0.1 m/s
256.3 K, 171.2 kPa	103.89 ± 0.1 m/s
256.3 K, 198.4 kPa	102.79 ± 0.1 m/s
256.3 K, 221.3 kPa	101.83 ± 0.1 m/s
261.6 K, 65.1 kPa	109.07 ± 0.1 m/s
261.6 K, 74.9 kPa	108.75 ± 0.1 m/s
261.6 K, 84 kPa	108.44 ± 0.1 m/s
261.6 K, 93.7 kPa	108.11 ± 0.1 m/s
261.6 K, 106.6 kPa	107.67 ± 0.1 m/s
261.6 K, 123.6 kPa	107.08 ± 0.1 m/s
261.6 K, 149.8 kPa	106.13 ± 0.1 m/s
261.6 K, 175.2 kPa	105.21 ± 0.1 m/s
261.6 K, 203.2 kPa	104.16 ± 0.1 m/s
261.6 K, 226.7 kPa	103.22 ± 0.1 m/s
261.6 K, 233.4 kPa	102.97 ± 0.1 m/s
261.6 K, 253.9 kPa	102.14 ± 0.1 m/s
266.8 K, 66.4 kPa	110.2 ± 0.1 m/s
266.8 K, 76.4 kPa	109.87 ± 0.1 m/s
266.8 K, 85.7 kPa	109.58 ± 0.1 m/s
266.8 K, 95.7 kPa	109.25 ± 0.1 m/s
266.8 K, 108.8 kPa	108.83 ± 0.1 m/s
266.8 K, 126.3 kPa	108.28 ± 0.1 m/s
266.8 K, 153 kPa	107.37 ± 0.1 m/s
266.8 K, 179.2 kPa	106.48 ± 0.1 m/s
266.8 K, 207.8 kPa	105.46 ± 0.1 m/s
266.8 K, 232.2 kPa	104.58 ± 0.1 m/s
266.8 K, 238.9 kPa	104.32 ± 0.1 m/s
266.8 K, 260 kPa	103.52 ± 0.1 m/s
272.1 K, 67.8 kPa	111.33 ± 0.09 m/s
272.1 K, 78 kPa	111.03 ± 0.1 m/s
272.1 K, 87.5 kPa	110.74 ± 0.1 m/s
272.1 K, 97.7 kPa	110.44 ± 0.1 m/s
272.1 K, 111.1 kPa	110.02 ± 0.1 m/s
272.1 K, 128.9 kPa	109.46 ± 0.1 m/s and 109.47 ± 0.1 m/s
272.1 K, 156.4 kPa	108.62 ± 0.1 m/s and 108.61 ± 0.1 m/s
272.1 K, 183.1 kPa	107.74 ± 0.1 m/s
272.1 K, 212.6 kPa	106.77 ± 0.1 m/s
272.1 K, 237.5 kPa	105.93 ± 0.1 m/s
272.1 K, 244.5 kPa	105.69 ± 0.1 m/s
272.1 K, 266.3 kPa	104.92 ± 0.1 m/s
277.4 K, 69.1 kPa	112.44 ± 0.09 m/s
277.4 K, 79.6 kPa	112.15 ± 0.09 m/s
277.4 K, 89.3 kPa	111.87 ± 0.09 m/s
277.4 K, 99.7 kPa	111.58 ± 0.1 m/s
277.4 K, 113.4 kPa	111.18 ± 0.1 m/s
277.4 K, 131.6 kPa	110.66 ± 0.1 m/s
277.4 K, 159.7 kPa	109.81 ± 0.1 m/s
277.4 K, 187.1 kPa	108.99 ± 0.1 m/s
277.4 K, 217.3 kPa	108.05 ± 0.1 m/s
277.4 K, 242.9 kPa	107.24 ± 0.1 m/s
277.4 K, 250.1 kPa	107.02 ± 0.1 m/s
277.4 K, 272.5 kPa	106.29 ± 0.1 m/s
282.7 K, 70.4 kPa	113.54 ± 0.09 m/s
282.7 K, 81.2 kPa	113.28 ± 0.09 m/s
282.7 K, 91 kPa	113 ± 1 m/s
282.7 K, 101.6 kPa	112.71 ± 0.09 m/s
282.7 K, 115.6 kPa	112.32 ± 0.09 m/s
282.7 K, 134.3 kPa	111.82 ± 0.1 m/s
282.7 K, 163 kPa	111.01 ± 0.1 m/s
282.7 K, 191.1 kPa	110.22 ± 0.1 m/s
282.7 K, 222 kPa	109.31 ± 0.1 m/s
282.7 K, 248.3 kPa	108.54 ± 0.1 m/s
282.7 K, 255.6 kPa	108.32 ± 0.1 m/s
282.7 K, 278.6 kPa	107.62 ± 0.1 m/s
287.9 K, 71.8 kPa	114.63 ± 0.09 m/s
287.9 K, 82.7 kPa	114.36 ± 0.09 m/s
287.9 K, 92.8 kPa	114.11 ± 0.09 m/s
287.9 K, 103.6 kPa	113.84 ± 0.09 m/s
287.9 K, 117.9 kPa	113.46 ± 0.09 m/s
287.9 K, 136.9 kPa	112.97 ± 0.09 m/s
287.9 K, 166.3 kPa	112.19 ± 0.1 m/s
287.9 K, 195 kPa	111.42 ± 0.1 m/s
287.9 K, 226.7 kPa	110.56 ± 0.1 m/s
287.9 K, 253.6 kPa	109.81 ± 0.1 m/s
287.9 K, 261.1 kPa	109.59 ± 0.1 m/s
287.9 K, 284.7 kPa	108.91 ± 0.1 m/s
293.2 K, 73.1 kPa	115.72 ± 0.09 m/s
293.2 K, 84.2 kPa	115.45 ± 0.09 m/s
293.2 K, 84.3 kPa	115.46 ± 0.09 m/s
293.2 K, 94.5 kPa	115.2 ± 0.1 m/s
293.2 K, 94.6 kPa	115.21 ± 0.09 m/s
293.2 K, 105.6 kPa	114.93 ± 0.09 m/s and 114.94 ± 0.09 m/s
293.2 K, 120.1 kPa	114.57 ± 0.09 m/s
293.2 K, 139.6 kPa	114.1 ± 0.1 m/s
293.2 K, 169.6 kPa	113.36 ± 0.09 m/s
293.2 K, 198.9 kPa	112.61 ± 0.1 m/s
293.2 K, 231.3 kPa	111.79 ± 0.1 m/s
293.2 K, 231.4 kPa	111.79 ± 0.1 m/s
293.2 K, 258.8 kPa	111.04 ± 0.1 m/s
293.2 K, 258.9 kPa	111.05 ± 0.1 m/s
293.2 K, 266.6 kPa	110.85 ± 0.1 m/s
293.2 K, 266.7 kPa	110.86 ± 0.1 m/s
293.2 K, 290.7 kPa	110.18 ± 0.1 m/s
293.2 K, 290.8 kPa	110.19 ± 0.1 m/s
298.4 K, 74.5 kPa	116.78 ± 0.09 m/s
298.4 K, 85.8 kPa	116.53 ± 0.09 m/s
298.4 K, 96.3 kPa	116.29 ± 0.09 m/s
298.4 K, 107.6 kPa	116.05 ± 0.09 m/s
298.4 K, 122.4 kPa	115.7 ± 0.1 m/s
298.4 K, 142.2 kPa	115.21 ± 0.09 m/s
298.4 K, 172.8 kPa	114.5 ± 0.1 m/s
298.4 K, 202.9 kPa	113.8 ± 0.1 m/s
298.4 K, 235.9 kPa	112.97 ± 0.1 m/s
298.4 K, 264.2 kPa	112.28 ± 0.1 m/s
298.4 K, 272.1 kPa	112.08 ± 0.1 m/s
298.4 K, 296.8 kPa	111.46 ± 0.1 m/s
303.7 K, 75.8 kPa	117.86 ± 0.09 m/s
303.7 K, 87.4 kPa	117.61 ± 0.09 m/s
303.7 K, 98.1 kPa	117.39 ± 0.09 m/s
303.7 K, 109.5 kPa	117.14 ± 0.09 m/s
303.7 K, 124.7 kPa	116.78 ± 0.09 m/s
303.7 K, 144.9 kPa	116.33 ± 0.09 m/s
303.7 K, 176.2 kPa	115.66 ± 0.09 m/s
303.7 K, 206.7 kPa	114.96 ± 0.09 m/s
303.7 K, 240.6 kPa	114.17 ± 0.1 m/s
303.7 K, 269.4 kPa	113.49 ± 0.09 m/s
303.7 K, 277.6 kPa	113.32 ± 0.09 m/s
308.9 K, 77.1 kPa	118.9 ± 0.1 m/s
308.9 K, 88.9 kPa	118.66 ± 0.09 m/s
308.9 K, 99.8 kPa	118.44 ± 0.09 m/s
308.9 K, 111.5 kPa	118.19 ± 0.09 m/s
308.9 K, 127 kPa	117.87 ± 0.09 m/s
308.9 K, 147.5 kPa	117.44 ± 0.09 m/s
308.9 K, 179.4 kPa	116.75 ± 0.09 m/s
308.9 K, 210.6 kPa	116.08 ± 0.09 m/s
308.9 K, 245.2 kPa	115.33 ± 0.09 m/s
308.9 K, 274.7 kPa	114.68 ± 0.1 m/s
308.9 K, 283 kPa	114.5 ± 0.1 m/s
314.1 K, 78.5 kPa	119.93 ± 0.09 m/s
314.1 K, 90.4 kPa	119.69 ± 0.09 m/s
314.1 K, 101.6 kPa	119.47 ± 0.09 m/s
314.1 K, 113.4 kPa	119.24 ± 0.09 m/s
314.1 K, 129.2 kPa	118.93 ± 0.09 m/s
314.1 K, 150.2 kPa	118.52 ± 0.09 m/s
314.1 K, 182.7 kPa	117.85 ± 0.09 m/s
314.1 K, 214.5 kPa	117.21 ± 0.09 m/s
314.1 K, 249.8 kPa	116.47 ± 0.09 m/s
314.1 K, 279.9 kPa	115.84 ± 0.09 m/s
314.1 K, 288.4 kPa	115.67 ± 0.09 m/s
319.4 K, 79.8 kPa	120.96 ± 0.09 m/s
319.4 K, 92 kPa	120.74 ± 0.09 m/s
319.4 K, 103.3 kPa	120.52 ± 0.09 m/s
319.4 K, 115.4 kPa	120.29 ± 0.09 m/s
319.4 K, 131.4 kPa	119.98 ± 0.09 m/s
319.4 K, 152.8 kPa	119.58 ± 0.09 m/s
319.4 K, 185.9 kPa	118.95 ± 0.09 m/s
319.4 K, 218.4 kPa	118.33 ± 0.09 m/s
319.4 K, 254.4 kPa	117.62 ± 0.09 m/s
319.4 K, 285.1 kPa	117.02 ± 0.09 m/s
319.4 K, 293.8 kPa	116.85 ± 0.09 m/s
324.6 K, 81.2 kPa	121.98 ± 0.09 m/s
324.6 K, 93.5 kPa	121.75 ± 0.09 m/s
324.6 K, 105.1 kPa	121.56 ± 0.09 m/s
324.6 K, 117.4 kPa	121.32 ± 0.09 m/s
324.6 K, 133.7 kPa	121.03 ± 0.09 m/s
324.6 K, 155.4 kPa	120.64 ± 0.09 m/s
324.6 K, 189.2 kPa	120.02 ± 0.09 m/s
324.6 K, 222.3 kPa	119.43 ± 0.09 m/s
324.6 K, 259 kPa	118.74 ± 0.09 m/s
324.6 K, 290.3 kPa	118.16 ± 0.09 m/s
324.6 K, 299.2 kPa	117.99 ± 0.09 m/s
